Test results published in ChEMBL document CHEMBL1201862, “PubChem BioAssay data set” (2004).
Active and inactive are the calls of the source.

Columns and labels:
[1] = cells
[2] = A Cell Based Secondary Assay To Explore Cytotoxicity of Compounds that Sensitize Mycobacterium Tuberculosis to Beta-Lactam Antibiotics.; assay type: functional
[3] = molecular target: T1, Oxysterols receptor LXR-beta (Homo sapiens, UniProt P55055); assay type: functional, cell-based
T1 sequence (P55055 whole entry): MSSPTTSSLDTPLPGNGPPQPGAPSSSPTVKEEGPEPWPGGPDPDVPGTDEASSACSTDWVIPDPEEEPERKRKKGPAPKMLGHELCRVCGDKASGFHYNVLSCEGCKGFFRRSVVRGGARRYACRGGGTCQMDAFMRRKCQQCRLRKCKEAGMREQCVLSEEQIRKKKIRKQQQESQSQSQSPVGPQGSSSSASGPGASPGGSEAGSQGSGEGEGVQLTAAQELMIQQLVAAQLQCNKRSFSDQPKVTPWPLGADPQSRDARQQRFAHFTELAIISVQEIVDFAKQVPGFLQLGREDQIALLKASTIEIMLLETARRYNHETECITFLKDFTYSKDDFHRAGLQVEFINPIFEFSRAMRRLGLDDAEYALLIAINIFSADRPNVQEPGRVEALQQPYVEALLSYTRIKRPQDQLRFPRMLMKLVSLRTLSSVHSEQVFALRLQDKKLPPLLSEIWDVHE

[4] = NIH:OVCAR-3 ovarian cancer cell cytotoxicity, dose response, PAX8 inhibitor project, plate reader, dry powder samples (AID 743044); assay type: functional, cell-based
[5] = molecular target: Paired box protein Pax-8 (Homo sapiens, UniProt Q06710); assay: inhibitors of PAX8-driven TPO luciferase reporter, dose response, RMG-I cells, cherry-pick (AID 687027); assay type: functional, cell-based;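 also: luciferase reporter driven by Pax8 target thyroperoxidase promoter measured by SteadyGlo luminescence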
[6] = cytotoxicity in OVCAR8 ovarian cancer cells, dose response, PAX8 project, cell-based, plate reader, dry powder samples (AID 743197); assay type: functional; conditions: OVCAR-8
[7] = Late-stage results from the probe development effort to identify antagonists of arginine vasopressin receptor 1a (AVPR1a): fluorescence-based cell-based dose response OXTR inhibition counterscreen assay.; assay type: functional
[8] = Late-stage results from the probe development effort to identify antagonists of arginine vasopressin receptor 1a (AVPR1a): fluorescence-based cell-based dose response AVPR1a inhibition assay.; assay type: functional
[9] = molecular target: Vasopressin V1b receptor (Homo sapiens, UniProt P47901); assay: Late-stage results from the probe development effort to identify antagonists of arginine vasopressin receptor 1a (AVPR1a): fluorescence-based cell-based dose response AVPR1b inhibition counterscreen assay.; assay type: functional
[10] = molecular target: Vasopressin V2 receptor (Homo sapiens, UniProt P30518); assay: Late-stage results from the probe development effort to identify antagonists of arginine vasopressin receptor 1a (AVPR1a): fluorescence-based cell-based dose response AVPR2 inhibition counterscreen assay.; assay type: functional
[11] = cells; assay type: functional, cell-based
[12] = molecular target: T1, Oxysterols receptor LXR-beta; assay type: functional, cell-based; remark: listed apart in the source
[13] = cells; assay type: functional, cell-based; remark: listed apart in the source
[14] = tested on: HeLa; assay: HeLa cell cytotoxicity, dose response, cytotoxicity control, ATP luminescence, cherry-pick samples (AID 687004); assay type: functional, cell-based; conditions: Homo sapiens
[15] = HEK293 Cytotoxicity Assay Measured in Cell-Based System Using Plate Reader - 7071-01_Inhibitor_Dose_CherryPick_Activity_Set2.; assay type: functional
[16] = tested on: HEK293; assay: HEK293T cell cytotoxicity, dose response, cytotoxicity control, ATP luminescence, cherry-pick samples (AID 687005); assay type: functional, cell-based; conditions: Homo sapiens;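 also: cells exposed to compound for 48 hours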
[17] = Luminescence-based cell-based high throughput dose response assay to identify activators of the DAF-12 from the parasite S. stercoralis (ssDAF-12).; assay type: functional
[18] = molecular target: T1, Oxysterols receptor LXR-beta; assay: LXR agonists, Gal4 luciferase reporter, dose response, counter-screen for ssDAF-12 agonist project, cell-based, luminescence, HEK293, S. stercoralis campaign (AID 720737); assay type: functional; conditions: read-out: IC50 (the source's name)
[19] = A2780 ovarian cancer cell cytotoxicity, dose response, cytotoxicity control, plate reader, dry powder samples (AID 743046); assay type: functional, cell-based
[20] = growth suppression of PTEN-null colon cells, dose response, cell-based, HCT116 PTEN knockout (AID 1047); assay type: functional;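 also: HCT116 colon tumor cells with PTEN knocked out; cells exposed to compound for 60 hours before readout; potency for loss of cell viability measured by luminescence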
[21] = molecular target: Kallikrein-7 (Homo sapiens, UniProt P49862); assay: Fluorescence Intensity-based biochemical primary high throughput dose response assay to identify activators of kallikrein-7 (K7) zymogen.
[22] = growth suppression of beta-catenin-knockout colon cells, dose response, cell-based, HCT116, human colon tumor (AID 1045); assay type: functional;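 also: HCT116 colon tumor cells with beta catenin knocked out; cells exposed to compound for 60 hours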
[23] = cytotoxicity in KRAS-transformed pancreatic duct cells, primary screen, cell-based, fluorescence, HTS (AID 431); assay type: functional; conditions: Homo sapiens;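 also: cell line used: HPDE-C7K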
[24] = molecular target: Heat shock protein HSP 90-alpha (Homo sapiens, UniProt P07900); assay type: functional, organism-based
[25] = cytotoxicity in HPDE-C7 cells, cell-based, fluorescence, HTS (AID 430); assay type: functional; conditions: Homo sapiens
[26] = molecular target: Mitogen-activated protein kinase 10 (Homo sapiens, UniProt P53779); assay: Dose response biochemical screening assay for inhibitors of c-Jun N-Terminal Kinase 3 (JNK3). [Related pubchem assays: 746 ]
[27] = molecular target: FAD-linked sulfhydryl oxidase ALR (Homo sapiens, UniProt P55789); assay: inhibitors of human ALR sulfhydryl oxidase, dose response, biochemical, H2O2 detection, luminescence, cherry-pick (AID 493248)
[28] = P. falciparum Dd2 growth inhibitors, dose response, SYBR Green, dry powder samples, set 9 (AID 1159568); assay type: functional, cell-based
[29] = molecular target: Voltage-gated inwardly rectifying potassium channel KCNH2 (Homo sapiens, UniProt Q12809); assay: hERG protection from proarrhythmic block, potency, dose response, cell-based, thallium flux (AID 2121); assay type: ADME
[30] = MITF: Counter assay: A375 proliferation Measured in Cell-Based System Using Plate Reader - 2084-03_Inhibitor_Dose_DryPowder_Activity_Set8.; assay type: functional; conditions: A-375
[31] = TRPM1 promoter luciferase reporter signal decrease, dose response, MITF inhibitor project, cell-based, SK-MEL-5, dry powder, set 8 (AID 624430); assay type: functional
[32] = MITF Orthogonal Assay: SK-MEL-5 CTG Assay Measured in Cell-Based System Using Plate Reader - 2084-02_Inhibitor_Dose_DryPowder_Activity_Set7.; assay type: functional
[33] = molecular target: Luciferin 4-monooxygenase (Photinus pyralis, UniProt P08659); assay: Counter Screen for Luciferase-based Assay Positives. [Related pubchem assays: 620, 618, 411 ]
[34] = tested on: HT-1080; assay: cytotoxicity in HT1080 fibrosarcoma cells, cell-based, fluorescence readout (AID 620); assay type: functional; conditions: Homo sapiens

Sequence of Paired box protein Pax-8 (Q06710 whole entry): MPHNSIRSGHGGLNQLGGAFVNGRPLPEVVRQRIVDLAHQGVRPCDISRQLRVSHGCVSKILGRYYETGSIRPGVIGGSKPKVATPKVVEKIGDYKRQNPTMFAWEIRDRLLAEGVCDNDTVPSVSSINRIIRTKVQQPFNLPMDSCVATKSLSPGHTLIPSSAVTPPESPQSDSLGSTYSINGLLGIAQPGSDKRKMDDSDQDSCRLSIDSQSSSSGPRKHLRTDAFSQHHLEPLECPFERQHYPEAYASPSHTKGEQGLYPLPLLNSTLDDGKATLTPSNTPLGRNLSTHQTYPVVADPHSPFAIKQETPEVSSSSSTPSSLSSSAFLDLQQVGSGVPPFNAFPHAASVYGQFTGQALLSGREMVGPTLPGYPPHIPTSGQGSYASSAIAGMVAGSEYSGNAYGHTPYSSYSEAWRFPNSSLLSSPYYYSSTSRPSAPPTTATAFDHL
Sequence of Mitogen-activated protein kinase 10 (P53779 whole entry): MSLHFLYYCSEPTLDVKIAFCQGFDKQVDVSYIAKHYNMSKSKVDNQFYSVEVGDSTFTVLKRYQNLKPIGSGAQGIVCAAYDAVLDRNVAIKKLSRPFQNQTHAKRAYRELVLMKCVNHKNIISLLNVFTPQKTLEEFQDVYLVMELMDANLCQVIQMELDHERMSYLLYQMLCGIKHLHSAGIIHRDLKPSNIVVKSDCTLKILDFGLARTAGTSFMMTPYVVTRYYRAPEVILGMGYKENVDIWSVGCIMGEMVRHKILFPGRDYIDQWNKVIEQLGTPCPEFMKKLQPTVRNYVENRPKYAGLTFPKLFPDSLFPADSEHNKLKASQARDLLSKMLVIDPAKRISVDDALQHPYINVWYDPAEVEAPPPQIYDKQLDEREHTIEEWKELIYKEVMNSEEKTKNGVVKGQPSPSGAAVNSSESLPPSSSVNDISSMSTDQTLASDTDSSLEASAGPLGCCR
Sequence of Vasopressin V2 receptor (P30518 whole entry): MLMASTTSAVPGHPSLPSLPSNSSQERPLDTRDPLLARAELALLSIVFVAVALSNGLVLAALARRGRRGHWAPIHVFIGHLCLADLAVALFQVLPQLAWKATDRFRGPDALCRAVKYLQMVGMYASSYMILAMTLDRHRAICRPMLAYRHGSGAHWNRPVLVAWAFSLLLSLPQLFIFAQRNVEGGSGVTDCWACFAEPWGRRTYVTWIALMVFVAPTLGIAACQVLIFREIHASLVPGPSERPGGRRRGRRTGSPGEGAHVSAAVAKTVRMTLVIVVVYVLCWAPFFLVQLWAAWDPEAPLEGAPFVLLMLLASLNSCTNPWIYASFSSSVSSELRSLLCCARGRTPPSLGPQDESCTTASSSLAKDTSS
Sequence of Vasopressin V1b receptor (P47901 whole entry): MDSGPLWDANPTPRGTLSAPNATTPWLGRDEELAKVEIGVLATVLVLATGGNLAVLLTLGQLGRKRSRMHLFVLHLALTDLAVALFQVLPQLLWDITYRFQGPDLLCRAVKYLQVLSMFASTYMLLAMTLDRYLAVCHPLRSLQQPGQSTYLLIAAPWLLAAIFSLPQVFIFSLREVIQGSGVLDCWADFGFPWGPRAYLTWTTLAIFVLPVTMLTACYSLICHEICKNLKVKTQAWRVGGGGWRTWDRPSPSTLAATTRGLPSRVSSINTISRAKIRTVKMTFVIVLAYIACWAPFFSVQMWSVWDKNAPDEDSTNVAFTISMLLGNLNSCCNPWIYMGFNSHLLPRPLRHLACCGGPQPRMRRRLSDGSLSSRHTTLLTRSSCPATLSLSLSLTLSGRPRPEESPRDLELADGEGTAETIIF
Sequence of Kallikrein-7 (P49862 whole entry): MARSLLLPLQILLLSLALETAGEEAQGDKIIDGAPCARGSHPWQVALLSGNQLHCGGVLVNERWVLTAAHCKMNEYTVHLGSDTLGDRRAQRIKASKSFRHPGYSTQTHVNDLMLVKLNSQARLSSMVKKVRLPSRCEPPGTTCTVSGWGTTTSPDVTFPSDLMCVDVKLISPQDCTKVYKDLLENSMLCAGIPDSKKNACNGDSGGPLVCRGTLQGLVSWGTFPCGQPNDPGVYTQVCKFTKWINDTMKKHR
Sequence of Voltage-gated inwardly rectifying potassium channel KCNH2 (Q12809 whole entry): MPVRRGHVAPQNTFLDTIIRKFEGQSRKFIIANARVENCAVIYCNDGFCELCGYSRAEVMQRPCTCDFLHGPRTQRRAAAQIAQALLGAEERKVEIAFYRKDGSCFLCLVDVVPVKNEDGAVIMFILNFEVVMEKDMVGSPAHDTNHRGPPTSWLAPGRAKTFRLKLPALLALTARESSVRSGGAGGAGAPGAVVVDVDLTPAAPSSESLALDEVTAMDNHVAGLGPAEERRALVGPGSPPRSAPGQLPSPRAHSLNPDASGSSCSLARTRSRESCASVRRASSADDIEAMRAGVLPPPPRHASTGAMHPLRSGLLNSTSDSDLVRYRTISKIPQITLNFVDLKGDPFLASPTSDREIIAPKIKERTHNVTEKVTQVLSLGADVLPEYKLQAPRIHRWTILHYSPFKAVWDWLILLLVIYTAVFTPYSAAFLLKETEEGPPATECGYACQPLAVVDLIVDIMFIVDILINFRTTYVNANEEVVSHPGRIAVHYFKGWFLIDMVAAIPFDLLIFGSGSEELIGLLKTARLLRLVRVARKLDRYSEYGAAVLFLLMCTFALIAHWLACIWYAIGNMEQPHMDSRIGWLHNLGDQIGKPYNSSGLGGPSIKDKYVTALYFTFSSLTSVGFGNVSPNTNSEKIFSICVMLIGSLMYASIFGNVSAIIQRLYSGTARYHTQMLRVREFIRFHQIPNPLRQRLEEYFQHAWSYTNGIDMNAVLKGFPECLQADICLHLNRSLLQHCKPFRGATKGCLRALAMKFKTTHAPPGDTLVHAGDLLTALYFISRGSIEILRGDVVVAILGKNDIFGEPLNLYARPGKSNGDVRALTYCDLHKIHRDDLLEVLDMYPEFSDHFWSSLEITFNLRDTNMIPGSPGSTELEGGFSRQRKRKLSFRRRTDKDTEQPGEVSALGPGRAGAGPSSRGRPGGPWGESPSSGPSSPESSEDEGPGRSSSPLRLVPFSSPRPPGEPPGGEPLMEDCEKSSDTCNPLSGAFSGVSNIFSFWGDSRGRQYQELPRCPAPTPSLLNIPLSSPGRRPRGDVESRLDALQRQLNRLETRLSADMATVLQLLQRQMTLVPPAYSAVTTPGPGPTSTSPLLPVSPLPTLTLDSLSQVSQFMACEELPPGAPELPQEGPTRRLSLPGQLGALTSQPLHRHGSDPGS
Sequence of Luciferin 4-monooxygenase (P08659 whole entry): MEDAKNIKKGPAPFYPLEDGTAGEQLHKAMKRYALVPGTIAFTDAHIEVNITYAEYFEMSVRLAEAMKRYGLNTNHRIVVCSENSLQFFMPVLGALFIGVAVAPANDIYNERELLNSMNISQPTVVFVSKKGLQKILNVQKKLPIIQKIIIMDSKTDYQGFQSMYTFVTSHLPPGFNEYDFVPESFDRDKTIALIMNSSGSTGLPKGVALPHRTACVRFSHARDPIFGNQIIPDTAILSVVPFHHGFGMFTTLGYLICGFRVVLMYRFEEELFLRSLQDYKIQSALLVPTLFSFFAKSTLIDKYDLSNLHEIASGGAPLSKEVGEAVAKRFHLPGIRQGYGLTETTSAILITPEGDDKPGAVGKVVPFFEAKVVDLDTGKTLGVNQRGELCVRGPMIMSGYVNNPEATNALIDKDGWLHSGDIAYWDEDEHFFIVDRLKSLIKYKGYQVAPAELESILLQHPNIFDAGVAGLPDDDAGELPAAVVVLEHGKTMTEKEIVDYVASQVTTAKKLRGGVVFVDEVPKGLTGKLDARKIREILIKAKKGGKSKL
Sequence of FAD-linked sulfhydryl oxidase ALR (P55789 whole entry): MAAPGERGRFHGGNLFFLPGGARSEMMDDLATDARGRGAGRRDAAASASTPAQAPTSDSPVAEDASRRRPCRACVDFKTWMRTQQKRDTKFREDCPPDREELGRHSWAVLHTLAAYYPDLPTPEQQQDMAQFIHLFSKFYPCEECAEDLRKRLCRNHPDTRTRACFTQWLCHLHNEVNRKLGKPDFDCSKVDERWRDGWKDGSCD

For Nc1c2c(nc3sc4c(c13)CCCC4)-c1ccccc1CC2, the EC50 [1] was > 67.5 µM (inactive), the CC50 [2] was > 40 µM (active) and the EC50 [3] was > 67.5 µM (inactive).
In the case of C[C@@H]1CN([C@H](C)CO)C(=O)c2cc(NC(=O)Cc3ccccc3)ccc2O[C@@H](C)CCCCO[C@@H]1CN(C)Cc1ccc(C(F)(F)F)cc1, the AC50 [4] is reported as 17.5 µM (active), the AC50 [5] is reported as 7.22 µM (active) and the AC50 [6] is reported as 43.2 µM (active).
For N#Cc1cccnc1N1CCN(C(=O)N(CC2CC2)c2ccc(Cl)cc2)CC1, the IC50 [7] was > 50 µM (inactive), the IC50 [8] was 0.0806 µM (active) and the IC50 [9] was > 50 µM (inactive). For the same molecule, the IC50 [10] was > 50 µM (inactive).
In the case of O=C(NCCCn1ccnc1)c1cc(-c2ccccc2)on1, the EC50 [11] is reported as 8.67 µM (active), the EC50 [12] is reported as > 67.5 µM (inactive) and the EC50 [13] is reported as > 350 µM (not active).
With C[C@@H]1CN([C@@H](C)CO)C(=O)c2cc(NS(=O)(=O)c3ccc(F)cc3)ccc2O[C@@H](C)CCCCO[C@H]1CN(C)S(=O)(=O)c1ccc(F)cc1 the AC50 [14] was > 52 µM (inactive), the AC50 [15] was 22.5 µM (active) and the AC50 [16] was 22.5 µM (active).
In the case of COc1ccc(Nc2nc(N)nc(CSC(=S)N3CCN(C)CC3)n2)cc1, the IC50 [17] is reported as > 67.6 µM (inactive) and the EC50 [18] is reported as > 67.6 µM (inactive).
For C[C@@H]1CCCCO[C@@H](CN(C)Cc2ccc(C(F)(F)F)cc2)[C@H](C)CN([C@H](C)CO)C(=O)c2cc(NC(=O)Nc3ccccc3)ccc2O1, the AC50 [4] was 28.1 µM (active), the AC50 [5] was 4.86 µM (active) and the AC50 [6] was 36 µM (active). The AC50 [19] was 57 µM (active).
For C=CCn1/c(=N/C(=O)c2ccc(S(=O)(=O)N3CCc4ccccc4C3)cc2)sc2cc(S(N)(=O)=O)ccc21, the EC50 [20] was 5.77 µM (active), the EC50 [21] was > 69.5 µM (inactive) and the EC50 [22] was 4.56 µM (active).
For Clc1ccc2[nH]c3c(c2c1)CCc1c[nH]nc1-3, the EC50 [23] was 18.1 µM (active), the AC50 [24] was 7.8 µM (active) and the EC50 [25] was 15 µM (active). For the same molecule, the IC50 [26] was 2.16 µM (active) and the AC50 [27] was 0.129 µM (active).
For COc1ccccc1-c1ccc2c(c1)[C@@H]1[C@@H](CCN1C(=O)C1CCC1)[C@H](CO)N2, the AC50 [28] was 2.92 µM (active).
With CCCNC(=O)N1[C@H](C#N)[C@H](c2ccccc2C2=CCCCC2)[C@@H]1CO the AC50 [28] was 7.06 µM (active).
In the case of O=C(COc1ccccc1Cl)NC(=S)Nc1ccccc1N1CCCC1, the EC50 [29] is reported as 1.56 µM (active).
With O=C1C=C(Nc2cc(Cl)cc(Cl)c2)C(=O)c2ccccc21 the AC50 [30] was 24 µM (active), the AC50 [31] was 23.9 µM (active) and the AC50 [32] was 1.12 µM (active).
In the case of Cc1cccnc1N1CCC(C(=O)N(CC2CC2)c2ccc(Cl)cc2)CC1, the IC50 [7] is reported as 2.6 µM (active), the IC50 [8] is reported as 0.0075 µM (active) and the IC50 [9] is reported as 12.6 µM (inactive). For the same molecule, the IC50 [10] was 15.7 µM (inactive).
With CC(=O)Nc1cccc(-c2nc3ccccc3c(=O)o2)c1 the IC50 [26] was 41.9 µM (not active).
In the case of Cc1cc(O)ccc1Nc1cc(-c2cccc(N(C)C)c2)ncn1, the EC50 [12] is reported as > 67.5 µM (inactive).
For Cc1ccc(-c2nc3cc(C)ccc3o2)cc1, the EC50 [33] was 1.59 µM (active), the EC50 [1] was > 67.5 µM (inactive) and the EC50 [34] was > 50 µM (not active). For the same molecule, the EC50 [3] was > 67.5 µM (inactive).
In the case of Cc1cccc(C(=O)/N=c2/c(C#N)cc3c(=O)n4cccc(C)c4nc3n2Cc2ccco2)c1, the EC50 [21] is reported as 65.6 µM (inactive).
In the case of Cc1noc(C)c1S(=O)(=O)N(C)C[C@H]1OCCCC[C@@H](C)Oc2ccc(NS(=O)(=O)c3ccc(Cl)cc3)cc2C(=O)N([C@@H](C)CO)C[C@H]1C, the AC50 [5] is reported as 10.9 µM (active) and the AC50 [19] is reported as < 0.26 µM (active).
For O=C1C(Nc2ccc(I)cc2)=C(N2CCCCC2)C(=O)c2ccccc21, the AC50 [30] was > 70 µM (inactive), the AC50 [31] was 9.62 µM (active) and the AC50 [32] was 15.9 µM (active).
